≈ marks a conversion by molar mass, not a printed value. Values belong to the compound of their own block, whether it stands above or below them.
Experiments:
Format in all cases: cell-based
[1] = tested on: Pseudomonas aeruginosa PR3 (high-level, efflux-mediated, pan-aminoglycoside resistance); assay: MIC against Pseudomonas aeruginosa clinical isolate PR3; conditions: for MIC PR3: Pseudomonas aeruginosa resistant strain PR3
Text: (§1) Pseudomonas aeruginosa is a prominent nosocomial pathogen. In addition to intrinsic antibiotic resistance to several antibiotics, Pseudomonas has acquired multiple additional mechanisms of resistance. As a result, therapeutic options for the treatment of infections caused by Pseudomonas aeruginosa are limited. We acquired clinical isolates of Pseudomonas aeruginosa (Micromyx LLC, Kalamazoo, Mich.), and used this panel to test compounds for Pseudomonicidal activity. […] For each strain and antibiotic, the mechanism(s) of resistance was inferred from the resistance profile. The presence of specific AGMEs was confirmed by colony PCR.

[2] = tested on: Pseudomonas aeruginosa PR1 (clinical isolate with intermediate aminoglycoside resistance); assay: MIC against Pseudomonas aeruginosa clinical isolate PR1; conditions: Pseudomonas aeruginosa resistant strain PR1
Text: as §1

[3] = tested on: Pseudomonas aeruginosa (Pae, PAWT, ATCC #27853); assay: MIC against Pseudomonas aeruginosa reference strain PAWT; conditions: Pseudomonas aeruginosa wild type PAWT
Text: (§2) For evaluation of efficacy, we assembled panels of representative gram-negative pathogens, including Pseudomonas aeruginosa (Pae, PAWT, ATCC #27853), Klebsiella pneumoniae (Kpn, KPWT, ATCC #700603), Acinetobacter baumannii (Aba, ABWT, ATCC #BAA-747) and Escherichia coli (Eco, ECWT, ATCC #25922). These reference strains are useful indicator organisms to characterize compound activity against bacteria from a pathogenic genus in the absence of multiple resistance mechanisms. Two strains (PAWT and ECWT) are reference strains cited within the Clinical and Laboratory Standards Institute (CLSI) Standards for susceptibility testing by Minimum Inhibitory Concentration (MIC) (SXPS2) and are well suited for quality control. ABWT and ECWT are widely susceptible to aminoglycoside antibiotics, whereas PAWT and KPWT harbor a single aminoglycoside-modifying enzyme (AGME) that targets 4,6-substituted-2-deoxystreptamine AGs. […]

[4] = tested on: Pseudomonas aeruginosa PR2 (clinical isolate with intermediate aminoglycoside resistance); assay: MIC against Pseudomonas aeruginosa clinical isolate PR2; conditions: Pseudomonas aeruginosa resistant strain PR2
Text: as §1

[5] = tested on: more than fifty resistant contemporary clinical isolates of Pseudomonas aeruginosa; assay: MIC90 against panel of resistant clinical isolates of Pseudomonas aeruginosa; conditions: Pseudomonas aeruginosa
Text: To assess this, a panel of more than fifty resistant contemporary clinical isolates of Pseudomonas aeruginosa were obtained from multiple sources including JMI Laboratories (North Liberty, Iowa), Pfizer (Groton, Conn.), Micromyx (Kalamazoo, Mich.), Dr. J. Chow (Wayne State University). Strains were characterized for resistance to a wide variety of classes of antibiotics including aminoglycosides, β-lactams and fluoroquinolones. […] This reflects the difficulty in treating clinical Pseudomonas aeruginosa infections. […] Using this stringent panel, we tested a subset of compounds of the invention (Table 4).

[6] = tested on: fifty resistant contemporary clinical isolates of Klebsiella pneumoniae; assay: MIC90 against panel of resistant clinical isolates of Klebsiella pneumoniae; conditions: Klebsiella pneumoniae; fifty resistant contemporary clinical isolates, reference antibiotics
Text: Using this stringent Klebsiella pneumoniae panel, we tested a subset of compounds of the invention.

[7] = tested on: Escherichia coli (Eco, ECWT, ATCC #25922); assay: MIC against Escherichia coli reference strain ECWT; conditions: ATCC25922
Text: For evaluation of efficacy, we assembled panels of representative gram-negative pathogens, including Pseudomonas aeruginosa (Pae, PAWT, ATCC #27853), Klebsiella pneumoniae (Kpn, KPWT, ATCC #700603), Acinetobacter baumannii (Aba, ABWT, ATCC #BAA-747) and Escherichia coli (Eco, ECWT, ATCC #25922). These reference strains are useful indicator organisms to characterize compound activity against bacteria from a pathogenic genus in the absence of multiple resistance mechanisms. Two strains (PAWT and ECWT) are reference strains cited within the Clinical and Laboratory Standards Institute (CLSI) Standards for susceptibility testing by Minimum Inhibitory Concentration (MIC) (SXPS2) and are well suited for quality control. ABWT and ECWT are widely susceptible to aminoglycoside antibiotics, whereas PAWT and KPWT harbor a single aminoglycoside-modifying enzyme (AGME) that targets 4,6-substituted-2-deoxystreptamine AGs.

[8] = tested on: Klebsiella pneumoniae (Kpn, KPWT, ATCC #700603); assay: MIC against Klebsiella pneumoniae reference strain KPWT; conditions: ATCC700603; Klebsiella pneumoniae KPWT, Table 2
Text: as §2, with “These reference strains are useful indicator organisms to characterize compound activity against bacteria from a pathogenic genus in the absence of multiple resistance mechanisms.” left out

[9] = tested on: Klebsiella pneumoniae screening panel KPWT, KR1, KR2, KR3; assay: Klebsiella pneumoniae screening panel (KPWT, KR1, KR2, KR3), reference AGs
Text: Klebsiella pneumoniae (Kpn) and Escherichia coli (Eco) are gram-negative (like Pae), enteric pathogens with increasing clinical relevance. Many clinical isolates of Kpn and Eco harbor extended-spectrum beta-lactamases and are no longer sensitive to most beta-lactam antibiotics. We acquired clinical isolates of Klebsiella pneumoniae and Escherichia coli (Micromyx LLC, Kalamazoo, Mich.) and used this panel to test compounds for anti-enteric activity.

[10] = tested on: Acinetobacter baumannii (Aba, ABWT, ATCC #BAA-747); assay: MIC against Acinetobacter baumannii reference strain ABWT; conditions: ATCCBAA747
Text: as §2

SMILES: NCC[C@H](O)C(=O)N[C@@H]1C[C@H](N)[C@@H](O[C@H]2O[C@H](CN)[C@@H](O)[C@H](O)[C@H]2O)[C@@H](F)[C@H]1O[C@H]1O[C@H](CNC(=O)[C@H](N)CCCNC(N)=O)[C@@H](O)[C@H](N)[C@H]1O [SXP1212-56″-7]
MIC PR3 [1]: 128 µg/mL (≈ 172 µM)
MIC PR1 [2]: 16 µg/mL (≈ 21.5 µM)
MIC PAWT [3]: 4 µg/mL (≈ 5.38 µM)
MIC PR2 [4]: 16 µg/mL (≈ 21.5 µM)

SMILES: CC(C)[C@H](N)C(=O)NC[C@H]1O[C@H](O[C@@H]2[C@H](F)[C@H](O[C@H]3O[C@H](CN)[C@@H](O)[C@H](O)[C@H]3O)[C@@H](N)C[C@H]2NC(=O)[C@@H](O)CCN)[C@H](O)[C@@H](N)[C@@H]1O [SXP1212-56″-8]
MIC PR3 [1]: 64 µg/mL (≈ 93.3 µM)
MIC PR1 [2]: 8 µg/mL (≈ 11.7 µM)
MIC PAWT [3]: 4 µg/mL (≈ 5.83 µM)
MIC PR2 [4]: 8 µg/mL (≈ 11.7 µM)

MIC90 [5]: ≥ 64 µg/mL
MIC90 [6]: ≥ 64 µg/mL
SMILES: C[C@H]1[C@H](NC(=O)/C(=N\OC(C)(C)C(=O)O)c2csc(N)n2)C(=O)N1S(=O)(=O)O [aztreonam]

MIC90 [5]: ≥ 64 µg/mL
MIC90 [6]: ≥ 64 µg/mL
SMILES: CO/N=C(\C(=O)N[C@@H]1C(=O)N2C(C(=O)[O-])=C(C[N+]3(C)CCCC3)CS[C@H]12)c1csc(N)n1 [cefepime]

MIC90 [5]: ≥ 64 µg/mL
MIC90 [6]: ≥ 64 µg/mL
SMILES: CC(C)(O/N=C(\C(=O)N[C@@H]1C(=O)N2C(C(=O)[O-])=C(C[n+]3ccccc3)CS[C@H]12)c1csc(N)n1)C(=O)O [ceftazidime]

MIC90 [5]: ≥ 64 µg/mL
MIC90 [6]: ≥ 64 µg/mL
SMILES: CO/N=C(\C(=O)N[C@@H]1C(=O)N2C(C(=O)O)=C(CSc3nc(=O)c(=O)[nH]n3C)CS[C@H]12)c1csc(N)n1 [ceftriaxone]

SMILES: NC[C@@H]1CC[C@@H](N)[C@@H](O[C@H]2[C@H](O)[C@@H](O[C@H]3O[C@H](CO)[C@@H](O)[C@H](N)[C@H]3O)[C@H](N)C[C@@H]2N)O1 [dibekacin]
MIC [7]: 1 to 2 µg/mL (≈ 2.21 to 4.43 µM)
MIC ([1]; Pseudomonas aeruginosa, read-out: MIC PR3): > 64 µg/mL
MIC [8]: 16 µg/mL (≈ 35.4 µM)
potency against Klebsiella pneumoniae test panel [9]: limited to no activity
MIC [2]: 4 µg/mL (≈ 8.86 µM)
MIC ([3]; ATCC27853): 0.25 to 0.5 µg/mL (≈ 0.554 to 1.11 µM)
MIC PAWT ([3]; listed as DIB): 0.25 to 0.5 µg/mL
MIC [4]: > 64 µg/mL
MIC [10]: 0.25 µg/mL (≈ 0.554 µM)

MIC90 [5]: ≥ 64 µg/mL
MIC90 [6]: ≥ 64 µg/mL
SMILES: C[C@@H](O)[C@H]1C(=O)N2C(C(=O)O)=C(S[C@@H]3CN[C@H](CNS(N)(=O)=O)C3)[C@H](C)[C@H]12 [doripenem]

MIC90 [5]: ≥ 64 µg/mL
MIC90 [6]: ≥ 64 µg/mL
SMILES: C[C@@H](O)[C@H]1C(=O)N2C(C(=O)O)=C(S[C@@H]3CN[C@H](C(=O)Nc4cccc(C(=O)O)c4)C3)[C@H](C)[C@H]12 [ertapenem]

MIC90 [5]: ≥ 64 µg/mL
MIC90 [6]: ≥ 64 µg/mL
SMILES: C[C@@H](O)[C@H]1C(=O)N2C(C(=O)O)=C(SCCN=CN)C[C@H]12 [imipenem]

— patent publication US8586552B2, “4,6-substituted 2,5-dideoxystreptamine aminoglycoside antibiotics” (SelectX Pharmaceuticals, Inc., priority 2012, dated 2013)
